Experimental data: patent US11931372B2, “Pharmaceutical composition containing pentacyclic triterpenoids” (SPV TIMSER, S.A.P.I. DE C.V., priority 2021, dated 2024)
Where two headings read alike, the source gives them in different places.

How the values were obtained:
[1] = test system: murine respiratory tract tissue; details: mouse, in vivo, 14 days
[2] = test system: SARS-CoV; details: culture cells; cited from earlier work
[3] = Pharmacokinetic study in healthy volunteers, inhaled route by nebulizer; format: in vivo, human; details: GA by inhalation, FIGS. 13 and 14
Description: Alternative tests were conducted to verify the synergistic behavior of the compositions of interest. For this reason, the results of pharmacokinetic studies are described and disclosed herein below. The study was based on the application of different versions of the herein claimed pharmaceutical composition to healthy volunteers by the inhaled route of administration, by means of a nebulizer device. The volunteers were given the drug once every 24 hours for three days. In addition, blood samples were taken from them at different time points. These samples were analyzed to quantify glycyrrhizinic acid (GA) and Enoxolone (EN) contents through the mass coupled HPLC methodology. […]
Blood samples of 5 mL were taken from each of the individuals at 30 minutes and at 1, 2, 3, 6, 12, 24, 48, 72 and 96 hours after drug administration. Then, the AG and EN concentrations in these blood samples were determined using the mass coupled HPLC methodology. In all cases, both components were quantified.
The following tables denote pharmacokinetic results (Area Under the Curve (AUC)) of the two drugs assessed (GA and EN). The Area Under the Curve (AUC) is a parameter related to the drug quantity to which the body has been exposed. […] The AUC was calculated using the R programming language within the “PK” software bundle. […]

[4] = 75 mg of GA administered orally; cited from earlier work
[5] = test system: murine respiratory tract tissue; assay: Toxicity and irritability assay by the inhaled route in murine rodents, histopathological lesion score; details: for Degenerative: Alveolar lesion score / Degenerative: Bronchial lesion score / Degenerative: Bronchiolar lesion score / Fibrosis: Alveolar Septa lesion score / Fibrosis: Peribronchial lesion score / Fibrosis: Peribronchiolar lesion score / Inflammatory: Bronchiolitis lesion score / Inflammatory: Bronchitis lesion score / Inflammatory: Hyaline Membrane lesion score / Inflammatory: Interstitial Pneumonia lesion score / Inflammatory: Vasculitis lesion score / Necrosis: Alveolar lesion score / Necrosis: Bronchial lesion score / Necrosis: Bronchiolar lesion score / Vascular: Alveolar edema lesion score / Vascular: Congestion lesion score / Vascular: Hemorrhage lesion score / Vascular: Interstitial edema lesion score / Vascular: Thrombosis lesion score / TOTAL damage and lesion rating: inhaled 10 min/day for 14 days; for Degenerative: Alveolar lesion score / Degenerative: Bronchial lesion score / Degenerative: Bronchiolar lesion score / Fibrosis: Alveolar Septa lesion score / Fibrosis: Peribronchial lesion score / Fibrosis: Peribronchiolar lesion score / Inflammatory: Bronchiolitis lesion score / Inflammatory: Bronchitis lesion score / Inflammatory: Hyaline Membrane lesion score / Inflammatory: Interstitial Pneumonia lesion score / Inflammatory: Vasculitis lesion score / Necrosis: Alveolar lesion score / Necrosis: Bronchial lesion score / Necrosis: Bronchiolar lesion score / Vascular: Alveolar edema lesion score / Vascular: Congestion lesion score / Vascular: Hemorrhage lesion score / Vascular: Interstitial edema lesion score / Vascular: Thrombosis lesion score: score 0-5; for TOTAL damage and lesion rating: sum of scores

Question: With CC1(C)[C@@H](O)CC[C@]2(C)[C@H]3C(=O)C=C4[C@@H]5C[C@@](C)(C(=O)O)CC[C@]5(C)CC[C@@]4(C)[C@]3(C)CC[C@@H]12 [EN, 18-β glycyrrhetinic acid] as the molecule, how does the “Degenerative: Alveolar lesion score” value [1] read?
Answer: The value was 0.

Question: And the “Fibrosis: Alveolar Septa lesion score” value [1]?
Answer: The value was 0.

Question: And the “Fibrosis: Peribronchial lesion score” value [1]?
Answer: Its value is 0.

Question: And the “Fibrosis: Peribronchiolar lesion score” value [1]?
Answer: The value was 0.

Question: And the “Inflammatory: Bronchiolitis lesion score” value [1]?
Answer: Its value is 0.

Question: And the “Inflammatory: Bronchitis lesion score” value [1]?
Answer: Its value is 0.

Question: And the “Inflammatory: Hyaline Membrane lesion score” value [1]?
Answer: Its value is 0.

Question: What about the “Inflammatory: Vasculitis lesion score” value [1] of the same molecule?
Answer: The value was 0.

Question: What about the “Necrosis: Alveolar lesion score” value [1] of the same molecule?
Answer: The value was 0.

Question: And the “Necrosis: Bronchial lesion score” value [1]?
Answer: Its value is 0.

Question: And the “Necrosis: Bronchiolar lesion score” value [1]?
Answer: Its value is 0.

Question: And the “Vascular: Alveolar edema lesion score” value [1]?
Answer: Its value is 0.

Question: What about the “Vascular: Congestion lesion score” value [1] of the same molecule?
Answer: Its value is 2.

Question: And the “Vascular: Hemorrhage lesion score” value [1]?
Answer: The value was 1.

Question: What about the “Vascular: Thrombosis lesion score” value [1] of the same molecule?
Answer: Its value is 0.

Question: Which results are given for CC1(C)[C@@H](O[C@H]2O[C@H](C(=O)O)[C@@H](O)[C@H](O)[C@H]2O[C@@H]2O[C@H](C(=O)O)[C@@H](O)[C@H](O)[C@H]2O)CC[C@]2(C)[C@H]3C(=O)C=C4[C@@H]5C[C@@](C)(C(=O)O)CC[C@]5(C)CC[C@@]4(C)[C@]3(C)CC[C@@H]12 [GA, glycyrrhizic acid]?
Answer: Inhibition of SARS-CoV replication [2]: prevented virus replication in culture cells; Time of initial peak value [3]: 60 min; EN concentration obtained by oral administration [4]: 200.3 ng/mL; Degenerative: Alveolar lesion score ([5]; High dosage): 0; Degenerative: Bronchial lesion score ([5]; High dosage): 1; Degenerative: Bronchiolar lesion score ([5]; High dosage): 1; Fibrosis: Alveolar Septa lesion score ([5]; High dosage): 0; Fibrosis: Peribronchial lesion score ([5]; High dosage): 0; Fibrosis: Peribronchiolar lesion score ([5]; High dosage): 0; Inflammatory: Bronchiolitis lesion score ([5]; High dosage): 0; Inflammatory: Bronchitis lesion score ([5]; High dosage): 0; Inflammatory: Hyaline Membrane lesion score ([5]; High dosage): 0; Inflammatory: Interstitial Pneumonia lesion score ([5]; High dosage): 3.5; Inflammatory: Vasculitis lesion score ([5]; High dosage): 0; Necrosis: Alveolar lesion score ([5]; High dosage): 0; Necrosis: Bronchial lesion score ([5]; High dosage): 1; Necrosis: Bronchiolar lesion score ([5]; High dosage): 0; Vascular: Alveolar edema lesion score ([5]; High dosage): 0; Vascular: Congestion lesion score ([5]; High dosage): 2; Vascular: Hemorrhage lesion score ([5]; High dosage): 2; Vascular: Interstitial edema lesion score ([5]; High dosage): 2; Vascular: Thrombosis lesion score ([5]; High dosage): 0; TOTAL damage and lesion rating ([5]; High dosage): 12.5; Degenerative: Alveolar lesion score ([5]; Low dosage): 0; Degenerative: Bronchial lesion score ([5]; Low dosage): 0.5; Degenerative: Bronchiolar lesion score ([5]; Low dosage): 0.5; Fibrosis: Alveolar Septa lesion score ([5]; Low dosage): 0; Fibrosis: Peribronchial lesion score ([5]; Low dosage): 0; Fibrosis: Peribronchiolar lesion score ([5]; Low dosage): 0; Inflammatory: Bronchiolitis lesion score ([5]; Low dosage): 0; Inflammatory: Bronchitis lesion score ([5]; Low dosage): 0; Inflammatory: Hyaline Membrane lesion score ([5]; Low dosage): 0; Inflammatory: Interstitial Pneumonia lesion score ([5]; Low dosage): 3; Inflammatory: Vasculitis lesion score ([5]; Low dosage): 0; Necrosis: Alveolar lesion score ([5]; Low dosage): 0; Necrosis: Bronchial lesion score ([5]; Low dosage): 0; Necrosis: Bronchiolar lesion score ([5]; Low dosage): 0; Vascular: Alveolar edema lesion score ([5]; Low dosage): 0; Vascular: Congestion lesion score ([5]; Low dosage): 2; Vascular: Hemorrhage lesion score ([5]; Low dosage): 3; Vascular: Interstitial edema lesion score ([5]; Low dosage): 1; Vascular: Thrombosis lesion score ([5]; Low dosage): 0; TOTAL damage and lesion rating ([5]; Low dosage): 10; Effect on basal lesions (in words) ([5]; increases according to the amount of administered drug): generation of additional lesions to the basal lesions
